Test system: amyloid plaques and fibrils in human brain slices
Experiment: Human brain slice competition assay using autoradiography
Assay type: binding
Details: radiolabeled tracer approx. 20 uCi, 90 min rt, lower = more displacement; for _max low dose (percent dose remaining relative to control with no blocker): blocker 0.25 uM; for _max high dose (percent dose remaining relative to control with no blocker): blocker 2.5 uM
Description: Human Brain Slice Competition Assay Using Autoradiography
Briefly, 5 micron thick human brain slices from regions of the brain bearing high amyloid plaque and fibril burden were incubated with approximately 20 uCi of a radiolabeled tracer in 2.5%:2.5%:95% DMSO:EtOH:PBS in the presence of blocker (2.5 and 0.25 uM total concentration) or absence of blocker (control). The slices were incubated at rt for 90 min. The slices were then quickly washed in PBS, followed by 70% EtOH:PBS for 2 min, then 30% EtOH:PBS for 2 min and then quickly washed with PBS. The slices were dried for 30 min and then exposed on autoradiographic film for 20 min. The brain slices were then removed from the slide and the radioactivity counted in a gamma counter. The percent dose remaining, relative to a control with no blocker, at 0.25 uM is represented in the “_max low dose” column. The percent dose remaining, relative to a control with no blocker, at 2.5 uM is represented in the “_max high dose” column.

Structure (SMILES): CN(C)c1ccc2c3ccc(OCCF)cc3n(CCF)c2c1 [Compound W102]
- _max low dose (percent dose remaining relative to control with no blocker): 91.92%
- _max high dose (percent dose remaining relative to control with no blocker): 92.00%

Structure (SMILES): COc1ccc2cc(-c3ccn[nH]3)ccc2c1 [Compound W1]
- _max low dose (percent dose remaining relative to control with no blocker): 70.48%
- _max high dose (percent dose remaining relative to control with no blocker): 35.38%

Structure (SMILES): Oc1ccc2c(c1)[nH]c1cc(NCCF)ccc12 [w78]
- _max low dose (percent dose remaining relative to control with no blocker): 99.49%
- _max high dose (percent dose remaining relative to control with no blocker): 63.32%

Structure (SMILES): CNc1ccc(-c2nc3ccccc3s2)cc1 [BTA1, reference compound]
- _max low dose (percent dose remaining relative to control with no blocker): 33.66%
- _max high dose (percent dose remaining relative to control with no blocker): 17.80%

Structure (SMILES): CN(C)c1ccc(/C=C2/C(=O)Nc3ccccc32)cc1 [Compound W12]
- _max low dose (percent dose remaining relative to control with no blocker): 105.11%
- _max high dose (percent dose remaining relative to control with no blocker): 45.98%

Structure (SMILES): Nc1ccc2[nH]c3ccc(OCc4ccccc4)cc3c2c1 [Compound W60]
- _max low dose (percent dose remaining relative to control with no blocker): 105.87%
- _max high dose (percent dose remaining relative to control with no blocker): 115.14%

Structure (SMILES): O=c1sc2ccccc2n1/C=C/c1ccccc1 [Compound W88]
- _max low dose (percent dose remaining relative to control with no blocker): 29.58%
- _max high dose (percent dose remaining relative to control with no blocker): 7.65%

Structure (SMILES): O=CNc1ccc2c(c1)[nH]c1cc(OCCF)ccc12 [CB12]
- _max low dose (percent dose remaining relative to control with no blocker): 59.97%
- _max high dose (percent dose remaining relative to control with no blocker): 12.29%

Structure (SMILES): c1ccc2c(c1)[nH]c1cc(OCCOCCOCCOc3ccc4c(c3)[nH]c3ccccc34)ccc12 [Compound W70]
- _max low dose (percent dose remaining relative to control with no blocker): 88.20%
- _max high dose (percent dose remaining relative to control with no blocker): 89.53%

Structure (SMILES): CNc1ccc2[nH]c3ccc(OCCOCCOCCF)cc3c2c1 [CB8]
- _max low dose (percent dose remaining relative to control with no blocker): 95.89%
- _max high dose (percent dose remaining relative to control with no blocker): 108.49%

Structure (SMILES): COc1ccc2c(c1)[nH]c1c(C)nccc12 [Compound W65]
- _max low dose (percent dose remaining relative to control with no blocker): 105.49%
- _max high dose (percent dose remaining relative to control with no blocker): 94.16%

Structure (SMILES): Oc1ccc(-c2cc3ccccn3c2)cc1 [Compound W103]
- _max low dose (percent dose remaining relative to control with no blocker): 35.38%
- _max high dose (percent dose remaining relative to control with no blocker): 3.50%

Structure (SMILES): FCCOCCOCCOc1ccc2c(c1)[nH]c1c3ccccc3sc21 [DHK4-57]
- _max low dose (percent dose remaining relative to control with no blocker): 81.06%
- _max high dose (percent dose remaining relative to control with no blocker): 30.70%

Structure (SMILES): O=CNc1ccc2c(c1)[nH]c1cc(OCc3ccccc3)ccc12 [WZ01169]
- _max low dose (percent dose remaining relative to control with no blocker): 42.09%
- _max high dose (percent dose remaining relative to control with no blocker): 36.55%

Structure (SMILES): CNc1ccc(-c2ccc3scnc3c2)cc1 [Compound W189, 4-(benzo[d]thiazol-5-yl)-N-methylaniline]
- _max high dose (percent dose remaining relative to control with no blocker): 9.53%

Structure (SMILES): FCCOCCOCCOc1ccc2c(c1)[nH]c1sc3ccccc3c12 [Compound W94]
- _max low dose (percent dose remaining relative to control with no blocker): 103.76%
- _max high dose (percent dose remaining relative to control with no blocker): 40.74%

Structure (SMILES): O=c1cc(-c2ccccc2)c2ccc(O)c(O)c2o1 [Compound 73]
- _max low dose (percent dose remaining relative to control with no blocker): 68.43%
- _max high dose (percent dose remaining relative to control with no blocker): 34.37%

Structure (SMILES): CN(C)c1ccc(/C=C2\C(=O)Nc3ccc(F)cc32)cc1 [Compound W71]
- _max low dose (percent dose remaining relative to control with no blocker): 104.61%
- _max high dose (percent dose remaining relative to control with no blocker): 88.00%

Structure (SMILES): FCCOc1ccc2c(c1)[nH]c1ccccc12 [CB1]
- _max low dose (percent dose remaining relative to control with no blocker): 74.86%
- _max high dose (percent dose remaining relative to control with no blocker): 30.34%

Structure (SMILES): O=CNc1ccc2c(c1)[nH]c1cc(OCCOCCOCCF)ccc12 [CB9]
- _max low dose (percent dose remaining relative to control with no blocker): 93.92%
- _max high dose (percent dose remaining relative to control with no blocker): 80.06%

Structure (SMILES): CC(=O)Nc1ccc2sc3ccccc3c2c1 [Compound W34]
- _max low dose (percent dose remaining relative to control with no blocker): 84.84%
- _max high dose (percent dose remaining relative to control with no blocker): 73.74%

Structure (SMILES): CN(C)c1ccc2c(c1)[nH]c1cc(OCCOCCOCCF)ccc12 [CB7]
- _max low dose (percent dose remaining relative to control with no blocker): 42.64%
- _max high dose (percent dose remaining relative to control with no blocker): 15.14%

Structure (SMILES): COc1ccc2c(c1)sc1nc(-c3ccc(F)cc3)cn12 [Compound W119]
- _max high dose (percent dose remaining relative to control with no blocker): 7.85%

Structure (SMILES): Nc1nc(-c2ccc3ccccc3c2)cs1 [w18]
- _max low dose (percent dose remaining relative to control with no blocker): 69.20%
- _max high dose (percent dose remaining relative to control with no blocker): 27.86%

Structure (SMILES): FCCOCCOCCOc1ccc2c(c1)[nH]c1ccccc12 [CB3]
- _max low dose (percent dose remaining relative to control with no blocker): 69.78%
- _max high dose (percent dose remaining relative to control with no blocker): 29.53%

Structure (SMILES): CC(=O)c1ccc2[nH]c(=O)sc2c1 [Compound W92]
- _max low dose (percent dose remaining relative to control with no blocker): 112.87%
- _max high dose (percent dose remaining relative to control with no blocker): 88.58%

Structure (SMILES): Cn1c2ccccc2c2ccc(OCCOCCOCCF)cc21 [CB6]
- _max low dose (percent dose remaining relative to control with no blocker): 111.02%
- _max high dose (percent dose remaining relative to control with no blocker): 113.69%

Structure (SMILES): Nc1ccc2c(c1)[nH]c1cc(OCc3ccccc3)ccc12 [Compound W42]
- _max low dose (percent dose remaining relative to control with no blocker): 49.95%
- _max high dose (percent dose remaining relative to control with no blocker): 17.60%

Structure (SMILES): FCCOCCOCCOc1ccc2c(c1)[nH]c1ncccc12 [DHK4-58]
- _max low dose (percent dose remaining relative to control with no blocker): 88.82%
- _max high dose (percent dose remaining relative to control with no blocker): 85.78%

Structure (SMILES): FCCNc1nc(-c2ccc3ccccc3c2)cs1 [TZ001, N-(2-fluoroethyl)-4-(naphthalen-2-yl)thiazol-2-amine]
- _max low dose (percent dose remaining relative to control with no blocker): 98.06%
- _max high dose (percent dose remaining relative to control with no blocker): 52.00%

Structure (SMILES): FCCCCOc1cccc(-c2cc3ccccn3c2)c1 [IN3]
- _max low dose (percent dose remaining relative to control with no blocker): 98.13%
- _max high dose (percent dose remaining relative to control with no blocker): 67.27%

Structure (SMILES): COc1ccc(-n2c(=O)sc3ccccc32)cc1 [UG470, 3-(4-methoxyphenyl)benzo[d]thiazol-2(3H)-one]
- _max low dose (percent dose remaining relative to control with no blocker): 81.29%
- _max high dose (percent dose remaining relative to control with no blocker): 79.87%

Structure (SMILES): CNc1ccc2c(c1)[nH]c1cc(OCCOCCOCCF)ccc12 [CB4]
- _max low dose (percent dose remaining relative to control with no blocker): 54.17%
- _max high dose (percent dose remaining relative to control with no blocker): 16.96%

Structure (SMILES): CN(C)c1ccc(-c2ncc(/C=C/c3ccc(O)cc3)s2)cc1 [UG-4-69, (E)-4-(2-(2-(4-(dimethylamino)phenyl)thiazol-5-yl)vinyl)phenol]
- _max low dose (percent dose remaining relative to control with no blocker): 69.79%
- _max high dose (percent dose remaining relative to control with no blocker): 31.02%

Structure (SMILES): FCCOc1cccc(-c2cc3ccccn3c2)c1 [Compound W84]
- _max low dose (percent dose remaining relative to control with no blocker): 97.22%
- _max high dose (percent dose remaining relative to control with no blocker): 40.32%

Structure (SMILES): O=C(c1ccccc1)n1c2ccccc2c2ccc(OCCOCCOCCF)cc21 [CB21]
- _max low dose (percent dose remaining relative to control with no blocker): 104.81%
- _max high dose (percent dose remaining relative to control with no blocker): 94.00%

Structure (SMILES): O=C(/C=C/C=C/c1ccccc1)c1cccs1 [Compound W24]
- _max low dose (percent dose remaining relative to control with no blocker): 55.16%
- _max high dose (percent dose remaining relative to control with no blocker): 23.51%

Structure (SMILES): N#Cc1ccc(/C=C2\C(=O)Nc3ccc(F)cc32)cc1 [Compound W79]
- _max low dose (percent dose remaining relative to control with no blocker): 92.77%
- _max high dose (percent dose remaining relative to control with no blocker): 96.90%

Source: patent US8420052B2, “Imaging agents useful for identifying AD pathology” (Siemens Medical Solutions USA, Inc., priority 2008, dated 2013)
